What was measured:
Trypsin [1] = molecular target: T1, Trypsin (Homo sapiens, UniProt P07477+P07478+P35030); assay: Inhibition of trypsin (unknown origin) assessed as reduction in enzyme activity; type: protein assay
Kallikrein-7 [2] = molecular target: T2, Kallikrein-7 (Homo sapiens, UniProt P49862); assay: Inhibition of human KLK7 assessed as residual enzyme activity at 10 uM
Target sequence in this assay (P49862 30-253 limits assumed): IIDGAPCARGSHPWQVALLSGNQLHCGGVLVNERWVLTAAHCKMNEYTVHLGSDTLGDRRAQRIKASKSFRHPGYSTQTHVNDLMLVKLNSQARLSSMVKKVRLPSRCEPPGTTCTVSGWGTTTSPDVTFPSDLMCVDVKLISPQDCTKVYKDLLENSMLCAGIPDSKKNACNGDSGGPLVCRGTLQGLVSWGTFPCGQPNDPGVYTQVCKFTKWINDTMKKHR

[3] = molecular target: Chymotrypsin (Homo sapiens) (UniProt Q99895+P17538+P40313+Q6GPI1); assay: Inhibition of Chymotrypsin (unknown origin) assessed as residual enzyme activity at 10 uM; type: protein assay
Kallikrein-5 = molecular target: T3, Kallikrein-5 (Homo sapiens, UniProt Q9Y337); assay: Inhibition of human KLK5 assessed as reduction in enzyme activity
T3 sequence (Q9Y337 whole entry): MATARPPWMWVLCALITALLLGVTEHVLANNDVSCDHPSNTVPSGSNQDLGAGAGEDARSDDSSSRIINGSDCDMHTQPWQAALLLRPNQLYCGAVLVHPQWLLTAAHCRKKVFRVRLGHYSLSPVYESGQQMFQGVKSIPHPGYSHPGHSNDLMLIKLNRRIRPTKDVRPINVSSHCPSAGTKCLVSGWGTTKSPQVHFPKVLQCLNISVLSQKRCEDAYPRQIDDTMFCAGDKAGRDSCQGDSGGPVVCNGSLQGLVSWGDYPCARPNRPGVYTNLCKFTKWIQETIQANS

Kallikrein-7 [4] = molecular target: T2, Kallikrein-7; assay: Inhibition of human KLK7 assessed as reduction in enzyme activity
Target sequence in this assay (P49862 whole entry): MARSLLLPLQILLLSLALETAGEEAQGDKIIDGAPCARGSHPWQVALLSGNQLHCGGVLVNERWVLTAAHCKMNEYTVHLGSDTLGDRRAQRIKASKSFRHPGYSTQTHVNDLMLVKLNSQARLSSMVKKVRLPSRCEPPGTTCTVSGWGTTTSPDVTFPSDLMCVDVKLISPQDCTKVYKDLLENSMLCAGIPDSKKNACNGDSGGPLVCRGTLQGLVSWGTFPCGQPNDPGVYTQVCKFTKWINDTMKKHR

Trypsin [5] = molecular target: T1, Trypsin; assay: Inhibition of trypsin (unknown origin) assessed as residual enzyme activity at 10 uM; type: protein assay
[6] = molecular target: Kallikrein-5 (Homo sapiens) (UniProt Q9Y337); assay: Inhibition of human KLK5 assessed as residual enzyme activity at 10 uM

| SMILES | IC50 (Trypsin [1]) [µM] | Activity (Kallikrein-7 [2]) [%] | Activity [3] [%] | IC50 (Kallikrein-5) [µM] | IC50 (Kallikrein-7 [4]) [µM] | Activity (Trypsin [5]) [%] | Activity [6] [%] |
| --- | --- | --- | --- | --- | --- | --- | --- |
| CCCCCCCCCCC/C(O)=C1/C(=O)[C@H](Cc2ccccc2)N(C(=O)OC(C)(C)C)C1=O | 2.1 | 0 | 98 | 3.6 | 2.3 | 10 | 0 |
| CC/C(O)=C1/C(=O)[C@H](Cc2ccccc2)N(C(=O)OC(C)(C)C)C1=O |  | 50 |  |  | 11 |  | 80 |
| CCCCC/C=C\C/C=C\CCCCCCC/C(O)=C1/C(=O)[C@H](Cc2ccccc2)N(C(=O)OC(C)(C)C)C1=O |  | 50 |  | 14 | 14 |  | 50 |
| CCCCCCCC/C=C\CCCCCCC/C(O)=C1/C(=O)[C@H](Cc2ccccc2)N(C(=O)OC(C)(C)C)C1=O | 2.3 | 0 | 87 | 1.8 | 2.5 | 5 | 0 |
| CCCCCCCCCCCCC/C(O)=C1/C(=O)[C@H](Cc2ccccc2)N(C(=O)OC(C)(C)C)C1=O | 2.4 | 0 | 90 | 4.9 | 1.7 | 20 | 0 |
| CCCCCCCCCCCCCCCCC/C(O)=C1/C(=O)[C@H](Cc2ccccc2)N(C(=O)OC(C)(C)C)C1=O |  | 0 |  | 17 | 2.8 |  | 0 |
| CC(C)C/C(O)=C1/C(=O)[C@H](Cc2ccccc2)N(C(=O)OC(C)(C)C)C1=O |  | 70 |  |  |  |  | 80 |
| CCCC(C)/C(O)=C1/C(=O)[C@H](Cc2ccccc2)N(C(=O)OC(C)(C)C)C1=O (some centres not stated) |  | 0 |  | 8 | 2.5 |  | 0 |
| CCCCCCCCCCCCCCC/C(O)=C1/C(=O)[C@H](Cc2ccccc2)N(C(=O)OC(C)(C)C)C1=O |  | 0 |  | 12 | 2.9 |  | 0 |

Source: ChEMBL document CHEMBL4316605, “3-Acyltetramic acids as a novel class of inhibitors for human kallikreins 5 and 7” (Bioorg Med Chem Lett, 2019)
